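Exposure lasted 48 hours, with cells grown in 96-well plates and compounds tested at five concentrations. TGI marks complete inhibition of growth.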
Key:
Test in all cases: NCI tumour cell line growth inhibition, 48 h
XF 498 CNS = system: XF 498 CNS
RXF-631 renal = system: RXF-631 renal
P388/ADR leukemia = system: P388/ADR leukemia
P388 leukemia = system: P388 leukemia
SN12K1 renal = system: SN12K1 renal

| SMILES | TGI (XF 498 CNS) | TGI (RXF-631 renal) | other results |
| --- | --- | --- | --- |
| CSCCC(C(=O)O)N(CC1(O)OCC(O)C(O)C1O)N=O (stereo not given) | > 100 µM | > 100 µM |  |
| COc1ccc(-c2cc(=O)c3c(O)cc(O)cc3o2)c(OC)c1OC | > 100 µM |  |  |
| CC1=C2C3OC(=O)C(C)C3CCC2(C)C=CC1=Nc1ccccc1 (stereo not given) |  |  | TGI (P388/ADR leukemia): > 100 µM; TGI (P388 leukemia): > 100 µM; TGI (SN12K1 renal): > 100 µM |
| CN(C(=O)c1ccco1)C(=S)N1CCN(c2ccccn2)CC1 | > 100 µM |  |  |
| CCCN(CCC)C1=Nc2ccccc2-n2cnnc2C1 | > 100 µM |  |  |
| COc1c2c(cc3c1C(=O)Cc1ccc4c(c1CN(C)CC3)OCO4)OCO2 |  | > 100 µM |  |
| O=c1c2c(c1=O)-c1ccccc1CN2 | > 100 µM |  |  |
| O=c1ccnc2ccc3n[nH][nH]c3c12 | > 100 µM | > 100 µM |  |
| CCOC(=O)C1(Br)S(=O)(=O)OCCOS1(=O)=O | > 100 µM |  |  |
| COc1cccc(NC(=O)C(=O)C2C=CCS2(=O)=O)c1 (stereo not given) | > 100 µM |  |  |
| O=C1C=CC2(C=C1)C[C@H](NC(=O)OCc1ccccc1)C(=O)O2 | 32 µM | 40.8 µM |  |
| CN(C(=O)c1ccc(OCCCC(=O)O)c(Cl)c1Cl)C1CCCC1 | 85.2 µM |  | TGI (P388/ADR leukemia): > 100 µM; TGI (P388 leukemia): > 100 µM; TGI (SN12K1 renal): > 100 µM |
